According to patent US6387954B1, “Alkenyl sulphonamide derivatives” (Eli Lilly and Company, priority 1998, dated 2002):

Target: T1, human GluR4B receptor (Homo sapiens, UniProt P48058)
T1 construct: expressed in transfected cells; host or cells: HEK293
Test: potentiation of agonist-induced excitability of GluR4B expressed in HEK 293 cells
Assay type: cell-based
Conditions: human GluR4B receptor expressed in HEK 293 cells
Source text: The ability of compounds of formula I to potentiate glutamate receptor-mediated response may be determined using fluorescent calcium indicator dyes (Molecular Probes, Eugene, Oregon, Fluo-3) and by measuring glutamate-evoked […] of calcium into GluR4 transfected HEK293 cells, as described in more detail below.
In one test, 96 well plates containing confluent monolayers of HEK cells stably expressing human GluR4B (obtained as described in European Patent Application Publication Number EP-A1-583917) are prepared. The tissue culture medium in the wells is then discarded, and the wells are each washed once with 200 μl of buffer (glucose, 10 mM, sodium chloride, 138 mM, magnesium chloride, 1 mM, potassium chloride, 5 mM, calcium chloride, 5 mM, N-[2-hydroxyethyl]-piperazine-N-[2-ethanesulfonic acid], 10 mM, to pH 7.1 to 7.3). […]
Each test is then performed as follows. […] A second fluorescent reading is taken after 5 minutes incubation. 15 μl of 400 μM glutamate solution is then added to each well (final glutamate concentration 100 μM), and a third reading is taken. The activities of test compounds and cyclothiazide solutions are determined by subtracting the second from the third reading (fluorescence due to addition of glutamate in the presence or absence of test compound or cyclothiazide) and are expressed relative to enhance fluorescence produced by 100 μM cyclothiazide.

T1 sequence (P48058 21-902): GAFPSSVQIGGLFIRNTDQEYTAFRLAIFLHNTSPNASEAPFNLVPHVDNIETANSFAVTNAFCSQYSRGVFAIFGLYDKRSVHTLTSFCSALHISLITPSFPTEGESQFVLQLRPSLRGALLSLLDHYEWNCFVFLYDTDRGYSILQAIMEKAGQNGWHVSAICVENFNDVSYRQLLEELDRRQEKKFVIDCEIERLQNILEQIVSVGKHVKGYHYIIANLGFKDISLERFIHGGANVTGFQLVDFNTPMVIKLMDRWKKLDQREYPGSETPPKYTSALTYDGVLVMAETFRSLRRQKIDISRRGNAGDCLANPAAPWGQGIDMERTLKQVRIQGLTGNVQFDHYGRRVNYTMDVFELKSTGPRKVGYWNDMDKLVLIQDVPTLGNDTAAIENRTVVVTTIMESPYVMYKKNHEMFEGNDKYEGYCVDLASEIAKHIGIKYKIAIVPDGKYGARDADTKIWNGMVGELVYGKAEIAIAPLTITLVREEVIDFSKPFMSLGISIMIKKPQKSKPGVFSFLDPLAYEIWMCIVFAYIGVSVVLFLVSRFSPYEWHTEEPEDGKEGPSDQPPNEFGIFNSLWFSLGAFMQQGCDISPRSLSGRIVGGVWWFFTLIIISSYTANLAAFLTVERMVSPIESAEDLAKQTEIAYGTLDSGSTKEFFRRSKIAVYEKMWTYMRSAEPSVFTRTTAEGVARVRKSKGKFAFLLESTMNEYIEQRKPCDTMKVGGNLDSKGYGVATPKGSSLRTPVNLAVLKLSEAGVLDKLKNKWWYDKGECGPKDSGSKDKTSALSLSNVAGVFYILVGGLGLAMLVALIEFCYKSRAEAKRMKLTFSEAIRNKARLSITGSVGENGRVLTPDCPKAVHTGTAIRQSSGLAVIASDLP

SMILES: NS(=O)(=O)c1cc2c(cc1Cl)NC(C1CC3C=CC1C3)NS2(=O)=O (stereo not shown) [cyclothiazide]
- potentiation of agonist-induced excitability: potentiate agonist-induced excitability
